# Source: ChEMBL document CHEMBL3885881, “DrugMatrix”
# Species: Rattus norvegicus
# Assay: DrugMatrix - Regimen: Daily Repeat
# Assay type: toxicity, organism-based, Sprague-Dawley
# Parameters: regimen Daily Repeat, gender Male, age 6-8 weeks
# Conditions: in vivo, po, route oral GAVAGE, […]; for BASOPHIL / EOSINOPHIL / ERYTHROCYTE COUNT / HEMATOCRIT / HEMOGLOBIN / LEUKOCYTE COUNT / LYMPHOCYTE / MEAN CORPUSCULAR HEMOGLOBIN / MEAN CORPUSCULAR HEMOGLOBIN CONCENTRATION / MEAN CORPUSCULAR VOLUME / MONOCYTE / NEUTROPHIL / PLATELET COUNT: tissue Blood; for ALANINE AMINOTRANSFERASE / ALBUMIN / ALKALINE PHOSPHATASE / ASPARTATE AMINOTRANSFERASE / BLOOD UREA NITROGEN / CARBON DIOXIDE / CHLORIDE / CHOLESTEROL / CREATINE PHOSPHOKINASE / CREATININE / GLUCOSE / LACTATE DEHYDROGENASE / LIPASE / PHOSPHORUS / POTASSIUM / SODIUM / TOTAL BILIRUBIN / TOTAL PROTEIN / URIC ACID: tissue Plasma
# [1] = 0 mg/kg, 72 h, dose level Control, time 3 day
# [2] = 0 mg/kg, 120 h, dose level Control, time 5 day
# [3] = 0 mg/kg, dose level Control, time 14 day
# [4] = 24 mg/kg, 72 h, dose level High, time 3 day
# [5] = 24 mg/kg, 120 h, dose level High, time 5 day
# [6] = 24 mg/kg, dose level High, time 14 day
compound,measurement,setting,value
c1ccoc1 [FURAN],BASOPHIL,[1],0.55%
same,EOSINOPHIL,[1],0.55%
same,ERYTHROCYTE COUNT,[1],6.6 x10E6/uL
same,HEMATOCRIT,[1],43.77%
same,HEMOGLOBIN,[1],14.12 G/DL
same,LEUKOCYTE COUNT,[1],10.15 x10E3/uL
same,LYMPHOCYTE,[1],87.95%
same,MEAN CORPUSCULAR HEMOGLOBIN,[1],21.4 pg
same,MEAN CORPUSCULAR HEMOGLOBIN CONCENTRATION,[1],32.23 G/DL
same,MEAN CORPUSCULAR VOLUME,[1],66.33 fL
same,MONOCYTE,[1],1.7%
same,NEUTROPHIL,[1],8.05%
same,PLATELET COUNT,[1],1122 x10E3/uL
same,ALANINE AMINOTRANSFERASE,[1],49.33 u/L
same,ALBUMIN,[1],4.08 G/DL
same,ALKALINE PHOSPHATASE,[1],565 u/L
same,ASPARTATE AMINOTRANSFERASE,[1],81.5 u/L
same,BLOOD UREA NITROGEN,[1],14.33 mg/dL
same,CARBON DIOXIDE,[1],27.17 mmol/L
same,CHLORIDE,[1],106.83 MEQ/L
same,CHOLESTEROL,[1],74.83 mg/dL
same,CREATINE PHOSPHOKINASE,[1],342.33 u/L
same,CREATININE,[1],0.4 mg/dL
same,GLUCOSE,[1],169.5 mg/dL
same,LACTATE DEHYDROGENASE,[1],165.17 u/L
same,LIPASE,[1],13.67 u/L
same,PHOSPHORUS,[1],12.42 mg/dL
same,POTASSIUM,[1],6.7 MEQ/L
same,SODIUM,[1],151.17 MEQ/L
same,TOTAL BILIRUBIN,[1],0.4 mg/dL
same,TOTAL PROTEIN,[1],6.13 G/DL
same,URIC ACID,[1],1.62 mg/dL
same,BASOPHIL,[2],0.87%
same,EOSINOPHIL,[2],0.53%
same,ERYTHROCYTE COUNT,[2],6.86 x10E6/uL
same,HEMATOCRIT,[2],45.15%
same,HEMOGLOBIN,[2],14.42 G/DL
same,LEUKOCYTE COUNT,[2],12.67 x10E3/uL
same,LYMPHOCYTE,[2],87.1%
same,MEAN CORPUSCULAR HEMOGLOBIN,[2],21.05 pg
same,MEAN CORPUSCULAR HEMOGLOBIN CONCENTRATION,[2],32 G/DL
same,MEAN CORPUSCULAR VOLUME,[2],65.75 fL
same,MONOCYTE,[2],1.9%
same,NEUTROPHIL,[2],8.25%
same,PLATELET COUNT,[2],1111 x10E3/uL
same,ALANINE AMINOTRANSFERASE,[2],46.17 u/L
same,ALBUMIN,[2],4.15 G/DL
same,ALKALINE PHOSPHATASE,[2],447.17 u/L
same,ASPARTATE AMINOTRANSFERASE,[2],65.67 u/L
same,BLOOD UREA NITROGEN,[2],13.17 mg/dL
same,CARBON DIOXIDE,[2],29 mmol/L
same,CHLORIDE,[2],104.5 MEQ/L
same,CHOLESTEROL,[2],72 mg/dL
same,CREATINE PHOSPHOKINASE,[2],368.5 u/L
same,CREATININE,[2],0.3 mg/dL
same,GLUCOSE,[2],162.83 mg/dL
same,LACTATE DEHYDROGENASE,[2],99.33 u/L
same,LIPASE,[2],12.67 u/L
same,PHOSPHORUS,[2],12.65 mg/dL
same,POTASSIUM,[2],6.52 MEQ/L
same,SODIUM,[2],148.67 MEQ/L
same,TOTAL BILIRUBIN,[2],0.38 mg/dL
same,TOTAL PROTEIN,[2],6.15 G/DL
same,URIC ACID,[2],1.9 mg/dL
same,BASOPHIL,[3],0.58%
same,EOSINOPHIL,[3],0.45%
same,ERYTHROCYTE COUNT,[3],7.51 x10E6/uL
same,HEMATOCRIT,[3],46.87%
same,HEMOGLOBIN,[3],15.2 G/DL
same,LEUKOCYTE COUNT,[3],14.2 x10E3/uL
same,LYMPHOCYTE,[3],80.78%
same,MEAN CORPUSCULAR HEMOGLOBIN,[3],20.25 pg
same,MEAN CORPUSCULAR HEMOGLOBIN CONCENTRATION,[3],32.42 G/DL
same,MEAN CORPUSCULAR VOLUME,[3],62.45 fL
same,MONOCYTE,[3],1.95%
same,NEUTROPHIL,[3],13.97%
same,PLATELET COUNT,[3],1115.17 x10E3/uL
same,ALANINE AMINOTRANSFERASE,[3],32.5 u/L
same,ALBUMIN,[3],4.22 G/DL
same,ALKALINE PHOSPHATASE,[3],349.5 u/L
same,ASPARTATE AMINOTRANSFERASE,[3],59.67 u/L
same,BLOOD UREA NITROGEN,[3],14.83 mg/dL
same,CARBON DIOXIDE,[3],30.33 mmol/L
same,CHLORIDE,[3],102.17 MEQ/L
same,CHOLESTEROL,[3],76 mg/dL
same,CREATINE PHOSPHOKINASE,[3],163.17 u/L
same,CREATININE,[3],0.37 mg/dL
same,GLUCOSE,[3],157.33 mg/dL
same,LACTATE DEHYDROGENASE,[3],93 u/L
same,LIPASE,[3],10.4 u/L
same,PHOSPHORUS,[3],11.93 mg/dL
same,POTASSIUM,[3],6.55 MEQ/L
same,SODIUM,[3],147.5 MEQ/L
same,TOTAL BILIRUBIN,[3],0.4 mg/dL
same,TOTAL PROTEIN,[3],6.45 G/DL
same,URIC ACID,[3],0.7 mg/dL
same,BASOPHIL,[4],0.77%
same,EOSINOPHIL,[4],0.73%
same,ERYTHROCYTE COUNT,[4],7.35 x10E6/uL
same,HEMATOCRIT,[4],48.6%
same,HEMOGLOBIN,[4],15.9 G/DL
same,LEUKOCYTE COUNT,[4],11.15 x10E3/uL
same,LYMPHOCYTE,[4],82.1%
same,MEAN CORPUSCULAR HEMOGLOBIN,[4],21.57 pg
same,MEAN CORPUSCULAR HEMOGLOBIN CONCENTRATION,[4],32.67 G/DL
same,MEAN CORPUSCULAR VOLUME,[4],66.1 fL
same,MONOCYTE,[4],3.27%
same,NEUTROPHIL,[4],11.37%
same,PLATELET COUNT,[4],1059 x10E3/uL
same,ALANINE AMINOTRANSFERASE,[4],358 u/L
same,ALBUMIN,[4],3.77 G/DL
same,ALKALINE PHOSPHATASE,[4],771.67 u/L
same,ASPARTATE AMINOTRANSFERASE,[4],316 u/L
same,BLOOD UREA NITROGEN,[4],12.33 mg/dL
same,CARBON DIOXIDE,[4],25 mmol/L
same,CHLORIDE,[4],105.67 MEQ/L
same,CHOLESTEROL,[4],87.67 mg/dL
same,CREATINE PHOSPHOKINASE,[4],333.33 u/L
same,CREATININE,[4],0.57 mg/dL
same,GLUCOSE,[4],150.67 mg/dL
same,LACTATE DEHYDROGENASE,[4],707 u/L
same,LIPASE,[4],11.67 u/L
same,PHOSPHORUS,[4],13.97 mg/dL
same,POTASSIUM,[4],6.6 MEQ/L
same,SODIUM,[4],149.33 MEQ/L
same,TOTAL BILIRUBIN,[4],0.93 mg/dL
same,TOTAL PROTEIN,[4],5.4 G/DL
same,URIC ACID,[4],2.27 mg/dL
same,BASOPHIL,[5],0.57%
same,EOSINOPHIL,[5],0.6%
same,ERYTHROCYTE COUNT,[5],7.68 x10E6/uL
same,HEMATOCRIT,[5],50.57%
same,HEMOGLOBIN,[5],16.23 G/DL
same,LEUKOCYTE COUNT,[5],17.47 x10E3/uL
same,LYMPHOCYTE,[5],82.63%
same,MEAN CORPUSCULAR HEMOGLOBIN,[5],21.1 pg
same,MEAN CORPUSCULAR HEMOGLOBIN CONCENTRATION,[5],32.1 G/DL
same,MEAN CORPUSCULAR VOLUME,[5],65.87 fL
same,MONOCYTE,[5],2.43%
same,NEUTROPHIL,[5],12.47%
same,PLATELET COUNT,[5],1240.33 x10E3/uL
same,ALANINE AMINOTRANSFERASE,[5],114.33 u/L
same,ALBUMIN,[5],3.83 G/DL
same,ALKALINE PHOSPHATASE,[5],986 u/L
same,ASPARTATE AMINOTRANSFERASE,[5],240.67 u/L
same,BLOOD UREA NITROGEN,[5],12.33 mg/dL
same,CARBON DIOXIDE,[5],30.67 mmol/L
same,CHLORIDE,[5],101.67 MEQ/L
same,CHOLESTEROL,[5],93.33 mg/dL
same,CREATINE PHOSPHOKINASE,[5],798.67 u/L
same,CREATININE,[5],0.37 mg/dL
same,GLUCOSE,[5],143 mg/dL
same,LACTATE DEHYDROGENASE,[5],233.67 u/L
same,LIPASE,[5],14.67 u/L
same,PHOSPHORUS,[5],12.43 mg/dL
same,POTASSIUM,[5],7.1 MEQ/L
same,SODIUM,[5],148.33 MEQ/L
same,TOTAL BILIRUBIN,[5],0.87 mg/dL
same,TOTAL PROTEIN,[5],5.63 G/DL
same,URIC ACID,[5],2.27 mg/dL
same,BASOPHIL,[6],0.54%
same,EOSINOPHIL,[6],0.64%
same,ERYTHROCYTE COUNT,[6],8.42 x10E6/uL
same,HEMATOCRIT,[6],50.4%
same,HEMOGLOBIN,[6],16.6 G/DL
same,LEUKOCYTE COUNT,[6],14.86 x10E3/uL
same,LYMPHOCYTE,[6],74.12%
same,MEAN CORPUSCULAR HEMOGLOBIN,[6],19.76 pg
same,MEAN CORPUSCULAR HEMOGLOBIN CONCENTRATION,[6],32.96 G/DL
same,MEAN CORPUSCULAR VOLUME,[6],59.9 fL
same,MONOCYTE,[6],2.54%
same,NEUTROPHIL,[6],20.58%
same,PLATELET COUNT,[6],1423.6 x10E3/uL
same,ALANINE AMINOTRANSFERASE,[6],56 u/L
same,ALBUMIN,[6],4.28 G/DL
same,ALKALINE PHOSPHATASE,[6],706.2 u/L
same,ASPARTATE AMINOTRANSFERASE,[6],86.6 u/L
same,BLOOD UREA NITROGEN,[6],13.2 mg/dL
same,CARBON DIOXIDE,[6],27 mmol/L
same,CHLORIDE,[6],104 MEQ/L
same,CHOLESTEROL,[6],106.8 mg/dL
same,CREATINE PHOSPHOKINASE,[6],224.2 u/L
same,CREATININE,[6],0.42 mg/dL
same,GLUCOSE,[6],136.6 mg/dL
same,LACTATE DEHYDROGENASE,[6],113.8 u/L
same,LIPASE,[6],17.2 u/L
same,PHOSPHORUS,[6],10.26 mg/dL
same,POTASSIUM,[6],5.84 MEQ/L
same,SODIUM,[6],148.4 MEQ/L
same,TOTAL BILIRUBIN,[6],0.72 mg/dL
same,TOTAL PROTEIN,[6],6.34 G/DL
same,URIC ACID,[6],1.26 mg/dL
